Test results reported in patent publication US12359182B2, “Polypeptide variants” (Novozymes A/S, priority 2020, dated 2025).

Columns and labels:
[1] = target: Bifidobacterium bifidum lactase (SEQ ID NO: 1) variant E2G (Bifidobacterium bifidum, UniProt A4K5H9, E34G); assay type: biochemical; conditions: D-(+)-Galactose 80 mM, ONPG 10.66 mM, pH 6.0, 30 min at 23° C., ratio of activity with/without galactose relative to wild type SEQ ID NO: 1 (IF=1.0), above 1 = decreased galactose inhibition
Protocol: (§1) Stop solution is added (Na2CO3, 10% w/v in H2O), and the absorbance at 405 nm is recorded. “Abs405 Galactose sample” is the absorbance for the lactase grown in assay solution, “Abs405 Galactose Blank” is the absorbance for non-inoculated assay solution, “Abs405 Reference sample” is the absorbance for the lactase grown in reference solution, and “Abs405 Reference Blank” is the absorbance for non-inoculated reference solution.

[2] = target: Bifidobacterium bifidum lactase (SEQ ID NO: 1) variant V1D (Bifidobacterium bifidum, UniProt A4K5H9, V33D); assay type: biochemical; conditions: D-(+)-Galactose 80 mM, ONPG 10.66 mM, pH 6.0, 30 min at 23° C., ratio of activity with/without galactose relative to wild type SEQ ID NO: 1 (IF=1.0), above 1 = decreased galactose inhibition
Chain of Bifidobacterium bifidum lactase (SEQ ID NO: 1) variant V1D (A4K5H9 entry or part of it V33D): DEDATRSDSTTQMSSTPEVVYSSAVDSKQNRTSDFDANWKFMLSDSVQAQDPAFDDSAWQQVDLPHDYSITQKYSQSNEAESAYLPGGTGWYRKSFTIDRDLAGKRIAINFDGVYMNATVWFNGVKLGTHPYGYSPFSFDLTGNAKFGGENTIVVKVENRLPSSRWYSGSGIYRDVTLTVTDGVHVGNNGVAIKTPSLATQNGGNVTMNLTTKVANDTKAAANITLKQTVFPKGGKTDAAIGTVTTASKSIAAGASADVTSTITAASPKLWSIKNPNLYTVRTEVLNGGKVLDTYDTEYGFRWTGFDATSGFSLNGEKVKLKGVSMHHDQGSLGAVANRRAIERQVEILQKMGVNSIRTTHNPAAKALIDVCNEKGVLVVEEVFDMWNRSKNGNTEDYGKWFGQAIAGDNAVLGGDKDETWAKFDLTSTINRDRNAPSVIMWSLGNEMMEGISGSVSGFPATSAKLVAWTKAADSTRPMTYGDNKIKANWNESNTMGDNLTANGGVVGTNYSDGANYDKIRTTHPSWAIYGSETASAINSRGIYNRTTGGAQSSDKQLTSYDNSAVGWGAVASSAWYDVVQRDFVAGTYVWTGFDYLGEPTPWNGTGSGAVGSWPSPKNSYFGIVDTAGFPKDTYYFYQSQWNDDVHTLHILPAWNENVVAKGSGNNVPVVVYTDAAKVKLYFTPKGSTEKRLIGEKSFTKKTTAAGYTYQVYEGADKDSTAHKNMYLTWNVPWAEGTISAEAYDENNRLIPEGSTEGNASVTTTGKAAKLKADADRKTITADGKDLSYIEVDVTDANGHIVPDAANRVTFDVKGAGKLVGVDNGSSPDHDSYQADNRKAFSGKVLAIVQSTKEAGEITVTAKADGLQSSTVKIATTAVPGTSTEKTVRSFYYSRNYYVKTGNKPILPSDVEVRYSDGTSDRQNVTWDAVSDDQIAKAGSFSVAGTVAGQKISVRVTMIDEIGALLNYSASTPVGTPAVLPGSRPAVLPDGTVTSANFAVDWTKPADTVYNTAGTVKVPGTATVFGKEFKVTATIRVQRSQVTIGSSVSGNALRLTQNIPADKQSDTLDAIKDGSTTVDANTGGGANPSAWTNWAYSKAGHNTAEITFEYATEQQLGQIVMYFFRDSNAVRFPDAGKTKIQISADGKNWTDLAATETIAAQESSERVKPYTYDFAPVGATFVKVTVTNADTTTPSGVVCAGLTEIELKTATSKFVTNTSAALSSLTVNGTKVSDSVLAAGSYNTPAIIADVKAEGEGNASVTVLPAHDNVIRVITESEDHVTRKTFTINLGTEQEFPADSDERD
Protocol: as §1

[3] = target: Bifidobacterium bifidum lactase (SEQ ID NO: 1) variant V1F (Bifidobacterium bifidum, UniProt A4K5H9, V33F); assay type: biochemical; conditions: D-(+)-Galactose 80 mM, ONPG 10.66 mM, pH 6.0, 30 min at 23° C., ratio of activity with/without galactose relative to wild type SEQ ID NO: 1 (IF=1.0), above 1 = decreased galactose inhibition
Chain of Bifidobacterium bifidum lactase (SEQ ID NO: 1) variant V1F (A4K5H9 entry or part of it V33F): as the sequence (A4K5H9 entry or part of it V33D) above, with D1F counted along it
Protocol: as §1

[4] = target: Bifidobacterium bifidum lactase (SEQ ID NO: 1) variant V1R (Bifidobacterium bifidum, UniProt A4K5H9, V33R); assay type: biochemical; conditions: D-(+)-Galactose 80 mM, ONPG 10.66 mM, pH 6.0, 30 min at 23° C., ratio of activity with/without galactose relative to wild type SEQ ID NO: 1 (IF=1.0), above 1 = decreased galactose inhibition
Chain of Bifidobacterium bifidum lactase (SEQ ID NO: 1) variant V1R (A4K5H9 entry or part of it V33R): as the sequence (A4K5H9 entry or part of it V33D) above, with D1R counted along it
Protocol: as §1

[5] = target: Bifidobacterium bifidum lactase (SEQ ID NO: 1) variant V1K (Bifidobacterium bifidum, UniProt A4K5H9, V33K); assay type: biochemical; conditions: D-(+)-Galactose 80 mM, ONPG 10.66 mM, pH 6.0, 30 min at 23° C., ratio of activity with/without galactose relative to wild type SEQ ID NO: 1 (IF=1.0), above 1 = decreased galactose inhibition
Chain of Bifidobacterium bifidum lactase (SEQ ID NO: 1) variant V1K (A4K5H9 entry or part of it V33K): as the sequence (A4K5H9 entry or part of it V33D) above, with D1K counted along it
Protocol: as §1

[6] = target: Bifidobacterium bifidum lactase, parent, SEQ ID NO: 1 (Bifidobacterium bifidum, UniProt A4K5H9); assay: galactose inhibition assay (GI-IF), ONPG hydrolysis with and without D-(+)-Galactose (80 mM), Abs405; assay type: biochemical; conditions: ONPG 10.66 mM, MES 100 mM, pH 6.0, 30 min at 23° C., normalized reference
Chain of Bifidobacterium bifidum lactase, parent, SEQ ID NO: 1 (A4K5H9 entry or part of it): as the sequence (A4K5H9 entry or part of it V33D) above, with D1V counted along it
Protocol: as §1

[7] = test system: Bifidobacterium bifidum lactase of SEQ ID NO: 1, variant G856E; assay: Km at pH 6.5, backbone with Glu at position 856 (purified samples); assay type: biochemical; conditions: E856 relative to G856
Text: (§2) *Note regarding backbone: Some clones of our template backbone for the site saturation library (SEQ ID NO: 1) contain a G856E mutation, so all substitution variants we describe are in the backbone context of SEQ ID NO: 1 with either Gly or Glu at position 856.

[8] = test system: Bifidobacterium bifidum lactase of SEQ ID NO: 1, variant G856E; assay: biochemical; conditions: pH 6.5; E856 relative to G856
Text: as §2

[9] = target: T1, Bifidobacterium bifidum lactase, SEQ ID NO: 1 (G856 backbone) (Bifidobacterium bifidum, UniProt A4K5H9); assay: biochemical
T1 construct: purified sample
T1 sequence (A4K5H9 entry or part of it): as the sequence (A4K5H9 entry or part of it V33D) above, with D1V counted along it
Text: as §2

[10] = target: T2, Bifidobacterium bifidum lactase of SEQ ID NO: 1, variant G856E (Bifidobacterium bifidum, UniProt A4K5H9, G888E); assay: biochemical
T2 construct: purified sample
T2 sequence (A4K5H9 33-1336 G888E): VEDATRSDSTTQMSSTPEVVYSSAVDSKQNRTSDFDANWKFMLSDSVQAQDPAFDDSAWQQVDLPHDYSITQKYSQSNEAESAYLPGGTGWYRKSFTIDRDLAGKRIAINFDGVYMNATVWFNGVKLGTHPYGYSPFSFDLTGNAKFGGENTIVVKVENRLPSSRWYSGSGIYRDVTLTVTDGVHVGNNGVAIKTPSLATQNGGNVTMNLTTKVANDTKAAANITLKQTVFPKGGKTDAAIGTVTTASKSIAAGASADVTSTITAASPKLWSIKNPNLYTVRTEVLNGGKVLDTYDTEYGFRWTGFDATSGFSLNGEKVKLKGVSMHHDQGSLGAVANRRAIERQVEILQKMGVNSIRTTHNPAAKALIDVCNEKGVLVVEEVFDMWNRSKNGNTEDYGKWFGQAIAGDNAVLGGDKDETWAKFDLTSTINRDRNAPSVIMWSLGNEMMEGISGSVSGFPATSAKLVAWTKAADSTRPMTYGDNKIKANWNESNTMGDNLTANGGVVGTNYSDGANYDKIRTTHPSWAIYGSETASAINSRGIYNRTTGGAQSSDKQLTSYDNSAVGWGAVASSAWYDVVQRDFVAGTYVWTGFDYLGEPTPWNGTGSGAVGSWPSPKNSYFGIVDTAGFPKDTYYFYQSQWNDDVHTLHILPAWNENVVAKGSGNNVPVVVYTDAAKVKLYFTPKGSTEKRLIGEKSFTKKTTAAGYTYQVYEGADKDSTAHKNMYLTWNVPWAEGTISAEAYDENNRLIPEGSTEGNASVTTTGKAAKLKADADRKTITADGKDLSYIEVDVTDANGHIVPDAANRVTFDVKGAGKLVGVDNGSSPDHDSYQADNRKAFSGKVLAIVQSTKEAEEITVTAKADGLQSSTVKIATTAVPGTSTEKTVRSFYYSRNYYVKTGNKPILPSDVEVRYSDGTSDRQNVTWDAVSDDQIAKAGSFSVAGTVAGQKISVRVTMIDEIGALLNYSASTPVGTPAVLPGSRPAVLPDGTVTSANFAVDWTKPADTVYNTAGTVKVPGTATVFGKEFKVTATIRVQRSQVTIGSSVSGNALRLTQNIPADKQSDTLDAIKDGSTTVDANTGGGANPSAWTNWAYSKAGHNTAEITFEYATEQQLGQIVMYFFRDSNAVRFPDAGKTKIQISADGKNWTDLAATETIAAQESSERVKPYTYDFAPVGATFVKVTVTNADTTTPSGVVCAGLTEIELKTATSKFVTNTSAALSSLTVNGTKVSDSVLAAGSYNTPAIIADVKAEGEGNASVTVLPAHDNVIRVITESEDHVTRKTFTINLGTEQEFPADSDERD
Text: as §2

Chain of Bifidobacterium bifidum lactase (SEQ ID NO: 1) variant E2G (A4K5H9 entry or part of it E34G): as the sequence (A4K5H9 entry or part of it V33D) above, with D1V, E2G counted along it

Compound: OC[C@H]1OC(O)[C@H](O)[C@@H](O)[C@H]1O (stereo partly drawn) [D-(+)-Galactose]
- GI-IF (galactose inhibition assay improvement factor) [1]: 1.17
- GI-IF (galactose inhibition assay improvement factor) [2]: 1.23
- GI-IF (galactose inhibition assay improvement factor) [3]: 1.25
- GI-IF (galactose inhibition assay improvement factor) [4]: 1.12
- GI-IF (galactose inhibition assay improvement factor) [5]: 1.11
- galactose inhibition improvement factor (GI-IF) [6]: 1.0

Compound: OC[C@H]1O[C@@H](O[C@H]2[C@H](O)[C@@H](O)C(O)O[C@@H]2CO)[C@H](O)[C@@H](O)[C@H]1O (stereo partly shown) [lactose]
- IF (Km, E856 vs. G856) [7]: 0.98

Compound: OC[C@H]1OC(O)[C@H](O)[C@@H](O)[C@H]1O (stereo partly drawn) [galactose, D-(+)-Galactose]
- IF (Ki galactose inhibition, E856 vs. G856) [8]: 0.98
- Ki [9]: 41.5 mM
- Ki [10]: 40.6 mM
